Values after ≈ are worked out from the molar mass of the structure shown. Active and inactive are the calls of the source. The rule behind the calls is not given here.
Assays:
[1] = Solubility of compound at pH 6.8; assay type: physicochemical; conditions: buffer
[2] = target: T1, Serine/threonine-protein kinase mTOR (Mus musculus, UniProt Q9JLN9); experiment: Inhibition of mTOR in mouse MEF cells harboring TSC1 deletion mutant assessed as reduction in PS6 phosphorylation incuabted for 2 hrs alexa fluor 594 and Hoechst staining based fluorescence assay; assay type: cell-based
[3] = target: Cytochrome P450 3A4 (Homo sapiens, UniProt P08684); experiment: Inhibition of CYP3A4 (unknown origin); assay type: ADME
Chain of Cytochrome P450 3A4 (P08684 whole entry): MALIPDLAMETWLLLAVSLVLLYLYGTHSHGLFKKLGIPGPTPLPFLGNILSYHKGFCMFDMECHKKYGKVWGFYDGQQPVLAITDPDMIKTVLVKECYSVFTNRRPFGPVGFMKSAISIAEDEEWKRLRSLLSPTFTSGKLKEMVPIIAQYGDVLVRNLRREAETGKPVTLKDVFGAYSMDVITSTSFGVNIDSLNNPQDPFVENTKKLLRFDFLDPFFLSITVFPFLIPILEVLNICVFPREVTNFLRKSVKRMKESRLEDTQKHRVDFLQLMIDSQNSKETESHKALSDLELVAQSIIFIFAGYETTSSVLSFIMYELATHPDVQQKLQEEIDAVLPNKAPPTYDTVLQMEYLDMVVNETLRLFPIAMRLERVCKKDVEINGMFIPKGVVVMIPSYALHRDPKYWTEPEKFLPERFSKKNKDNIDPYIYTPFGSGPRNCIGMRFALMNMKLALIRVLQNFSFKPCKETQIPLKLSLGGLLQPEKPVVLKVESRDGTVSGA

[4] = Stability in rat liver microsomes assessed as intrinsic clearance at 1 uM incubated for 30 mins by LC-MS/MS analysis; assay type: ADME, Microsome; conditions: read-out: CLH
[5] = Stability in mouse liver microsomes assessed as intrinsic clearance; assay type: ADME, Microsome; conditions: read-out: CLH
[6] = tested on: MDR1; experiment: Efflux ratio of permeability from basolateral to apical over apical to basolateral side in MDCK-MDR1 cells; assay type: ADME, cell-based, Canis lupus familiaris; conditions: dog
[7] = Stability in monkey liver microsomes assessed as intrinsic clearance; assay type: ADME, Macaca mulatta, Microsome; conditions: rhesus monkey, read-out: CLH
[8] = target: Phosphatidylinositol 4,5-bisphosphate 3-kinase catalytic subunit delta isoform (Homo sapiens, UniProt O00329); experiment: Inhibition of PI3Kdelta (unknown origin)
[9] = Stability in rat liver microsomes assessed as intrinsic clearance; assay type: ADME, Microsome; conditions: read-out: CLH
[10] = target: Phosphatidylinositol 4,5-bisphosphate 3-kinase catalytic subunit alpha isoform (Homo sapiens, UniProt P42336); experiment: Inhibition of PI3Kalpha (unknown origin)
Chain of Phosphatidylinositol 4,5-bisphosphate 3-kinase catalytic subunit alpha isoform (P42336 whole entry, canonical isoform): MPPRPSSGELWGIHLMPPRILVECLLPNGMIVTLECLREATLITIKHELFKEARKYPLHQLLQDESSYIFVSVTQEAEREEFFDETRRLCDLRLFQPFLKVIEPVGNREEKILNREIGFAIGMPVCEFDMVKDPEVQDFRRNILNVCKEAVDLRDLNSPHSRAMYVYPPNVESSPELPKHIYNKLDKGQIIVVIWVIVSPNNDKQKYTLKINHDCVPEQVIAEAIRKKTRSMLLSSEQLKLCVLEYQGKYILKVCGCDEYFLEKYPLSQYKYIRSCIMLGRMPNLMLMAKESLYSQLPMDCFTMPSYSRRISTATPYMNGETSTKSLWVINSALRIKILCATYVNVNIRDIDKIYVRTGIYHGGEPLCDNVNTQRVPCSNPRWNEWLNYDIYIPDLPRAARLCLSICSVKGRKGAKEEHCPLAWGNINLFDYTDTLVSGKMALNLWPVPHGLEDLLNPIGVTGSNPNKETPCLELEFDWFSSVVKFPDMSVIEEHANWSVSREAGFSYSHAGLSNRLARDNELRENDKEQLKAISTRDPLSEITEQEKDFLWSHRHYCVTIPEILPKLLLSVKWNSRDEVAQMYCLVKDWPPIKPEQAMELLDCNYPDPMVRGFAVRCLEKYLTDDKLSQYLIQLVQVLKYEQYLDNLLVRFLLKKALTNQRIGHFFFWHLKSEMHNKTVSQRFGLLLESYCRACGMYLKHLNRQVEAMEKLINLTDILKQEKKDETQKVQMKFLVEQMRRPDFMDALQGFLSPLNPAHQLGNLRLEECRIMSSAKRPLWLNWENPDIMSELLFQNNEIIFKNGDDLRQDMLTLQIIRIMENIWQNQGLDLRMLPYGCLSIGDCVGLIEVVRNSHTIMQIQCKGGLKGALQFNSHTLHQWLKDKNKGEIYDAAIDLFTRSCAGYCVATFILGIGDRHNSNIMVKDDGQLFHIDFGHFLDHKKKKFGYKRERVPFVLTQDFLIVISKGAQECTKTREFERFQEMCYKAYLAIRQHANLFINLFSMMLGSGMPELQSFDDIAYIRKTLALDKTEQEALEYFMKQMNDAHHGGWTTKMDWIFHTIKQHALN

[11] = Stability in dog liver microsomes assessed as intrinsic clearance; assay type: ADME, Canis lupus familiaris, Microsome; conditions: read-out: CLH
[12] = target: Phosphatidylinositol 4,5-bisphosphate 3-kinase catalytic subunit beta isoform (Homo sapiens, UniProt P42338); experiment: Inhibition of PI3Kbeta (unknown origin)
Chain of Phosphatidylinositol 4,5-bisphosphate 3-kinase catalytic subunit beta isoform (P42338 whole entry, canonical isoform): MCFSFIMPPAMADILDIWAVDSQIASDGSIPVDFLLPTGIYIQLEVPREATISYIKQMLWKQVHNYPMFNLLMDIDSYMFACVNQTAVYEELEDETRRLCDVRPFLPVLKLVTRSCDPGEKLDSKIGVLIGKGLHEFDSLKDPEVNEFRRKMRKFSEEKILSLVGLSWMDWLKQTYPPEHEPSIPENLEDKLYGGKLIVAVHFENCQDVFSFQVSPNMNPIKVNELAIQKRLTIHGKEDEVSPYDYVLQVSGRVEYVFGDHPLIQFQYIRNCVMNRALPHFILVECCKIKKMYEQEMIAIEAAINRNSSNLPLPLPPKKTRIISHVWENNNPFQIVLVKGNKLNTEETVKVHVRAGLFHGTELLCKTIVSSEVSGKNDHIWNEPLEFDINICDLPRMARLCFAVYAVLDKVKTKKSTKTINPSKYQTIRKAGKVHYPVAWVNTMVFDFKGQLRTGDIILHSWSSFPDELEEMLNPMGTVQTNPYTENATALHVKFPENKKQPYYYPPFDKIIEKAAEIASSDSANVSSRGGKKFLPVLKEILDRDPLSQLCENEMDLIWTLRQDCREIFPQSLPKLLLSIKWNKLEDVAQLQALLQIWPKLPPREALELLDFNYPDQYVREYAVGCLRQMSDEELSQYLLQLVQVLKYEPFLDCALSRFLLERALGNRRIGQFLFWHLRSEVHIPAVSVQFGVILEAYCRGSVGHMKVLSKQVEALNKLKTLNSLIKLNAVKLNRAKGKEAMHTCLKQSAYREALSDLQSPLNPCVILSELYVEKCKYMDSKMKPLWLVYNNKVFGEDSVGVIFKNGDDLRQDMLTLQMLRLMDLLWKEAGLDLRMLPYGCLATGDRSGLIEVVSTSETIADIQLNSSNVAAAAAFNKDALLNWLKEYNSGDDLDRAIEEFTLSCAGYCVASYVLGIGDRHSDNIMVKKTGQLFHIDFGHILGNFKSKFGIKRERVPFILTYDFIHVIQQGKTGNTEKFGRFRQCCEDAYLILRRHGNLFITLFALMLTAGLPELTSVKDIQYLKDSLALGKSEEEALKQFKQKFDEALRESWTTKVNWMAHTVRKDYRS

[13] = target: Cytochrome P450 2D6 (Homo sapiens, UniProt P10635); experiment: Inhibition of CYP2D6 (unknown origin); assay type: ADME
Chain of Cytochrome P450 2D6 (P10635 whole entry, canonical isoform): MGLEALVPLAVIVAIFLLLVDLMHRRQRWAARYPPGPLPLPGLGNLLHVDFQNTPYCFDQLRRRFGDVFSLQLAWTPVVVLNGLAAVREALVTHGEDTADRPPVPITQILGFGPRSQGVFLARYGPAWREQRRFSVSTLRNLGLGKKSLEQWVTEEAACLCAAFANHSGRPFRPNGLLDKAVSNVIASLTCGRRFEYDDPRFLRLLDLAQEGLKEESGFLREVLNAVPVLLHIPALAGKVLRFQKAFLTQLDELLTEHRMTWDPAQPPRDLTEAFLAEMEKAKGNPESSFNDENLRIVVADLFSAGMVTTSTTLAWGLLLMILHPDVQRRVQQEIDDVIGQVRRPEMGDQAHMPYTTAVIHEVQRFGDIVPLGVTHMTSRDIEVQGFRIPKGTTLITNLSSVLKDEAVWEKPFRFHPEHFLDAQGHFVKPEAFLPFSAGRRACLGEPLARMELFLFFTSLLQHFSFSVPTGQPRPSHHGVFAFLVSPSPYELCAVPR

[14] = target: Phosphatidylinositol 4,5-bisphosphate 3-kinase catalytic subunit gamma isoform (Homo sapiens, UniProt P48736); experiment: Inhibition of PI3Kgamma (unknown origin)
Chain of Phosphatidylinositol 4,5-bisphosphate 3-kinase catalytic subunit gamma isoform (P48736 whole entry, canonical isoform): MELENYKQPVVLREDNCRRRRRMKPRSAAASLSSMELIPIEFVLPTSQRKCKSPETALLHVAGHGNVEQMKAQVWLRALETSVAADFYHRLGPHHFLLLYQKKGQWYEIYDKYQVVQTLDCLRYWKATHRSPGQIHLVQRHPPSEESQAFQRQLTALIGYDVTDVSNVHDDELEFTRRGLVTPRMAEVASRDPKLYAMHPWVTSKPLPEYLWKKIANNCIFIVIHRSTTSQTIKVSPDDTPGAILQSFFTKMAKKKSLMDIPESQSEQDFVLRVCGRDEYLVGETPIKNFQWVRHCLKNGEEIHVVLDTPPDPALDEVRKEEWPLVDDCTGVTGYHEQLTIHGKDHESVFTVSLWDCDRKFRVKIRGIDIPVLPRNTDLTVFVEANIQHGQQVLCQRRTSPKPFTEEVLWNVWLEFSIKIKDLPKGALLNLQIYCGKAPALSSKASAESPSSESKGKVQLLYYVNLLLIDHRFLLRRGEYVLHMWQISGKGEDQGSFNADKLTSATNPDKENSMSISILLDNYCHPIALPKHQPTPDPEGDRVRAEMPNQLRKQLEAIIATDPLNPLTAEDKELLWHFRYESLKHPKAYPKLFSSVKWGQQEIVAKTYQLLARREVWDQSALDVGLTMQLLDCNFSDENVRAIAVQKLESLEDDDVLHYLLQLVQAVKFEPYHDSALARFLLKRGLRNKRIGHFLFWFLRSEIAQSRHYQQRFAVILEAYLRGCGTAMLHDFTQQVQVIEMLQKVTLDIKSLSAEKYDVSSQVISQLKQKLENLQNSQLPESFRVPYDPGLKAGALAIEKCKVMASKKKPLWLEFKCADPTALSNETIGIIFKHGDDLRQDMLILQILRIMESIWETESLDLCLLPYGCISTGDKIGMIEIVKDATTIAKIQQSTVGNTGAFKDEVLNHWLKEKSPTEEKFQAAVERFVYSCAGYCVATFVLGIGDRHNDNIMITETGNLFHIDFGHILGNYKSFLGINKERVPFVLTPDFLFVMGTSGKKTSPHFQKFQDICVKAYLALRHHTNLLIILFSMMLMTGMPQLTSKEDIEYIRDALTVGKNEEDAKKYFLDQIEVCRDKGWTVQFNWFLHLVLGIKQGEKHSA

[15] = target: T1, Serine/threonine-protein kinase mTOR; experiment: Inhibition of mTOR in mouse TSC1-/- MEF cells assessed as inhibition of S6 Ser240/244 phosphorylation incubated for 2 hrs by fluorescence based assay; assay type: cell-based
[16] = target: Cytochrome P450 2C9 (Homo sapiens, UniProt P11712); experiment: Inhibition of CYP2C9 (unknown origin); assay type: ADME
Chain of Cytochrome P450 2C9 (P11712 whole entry): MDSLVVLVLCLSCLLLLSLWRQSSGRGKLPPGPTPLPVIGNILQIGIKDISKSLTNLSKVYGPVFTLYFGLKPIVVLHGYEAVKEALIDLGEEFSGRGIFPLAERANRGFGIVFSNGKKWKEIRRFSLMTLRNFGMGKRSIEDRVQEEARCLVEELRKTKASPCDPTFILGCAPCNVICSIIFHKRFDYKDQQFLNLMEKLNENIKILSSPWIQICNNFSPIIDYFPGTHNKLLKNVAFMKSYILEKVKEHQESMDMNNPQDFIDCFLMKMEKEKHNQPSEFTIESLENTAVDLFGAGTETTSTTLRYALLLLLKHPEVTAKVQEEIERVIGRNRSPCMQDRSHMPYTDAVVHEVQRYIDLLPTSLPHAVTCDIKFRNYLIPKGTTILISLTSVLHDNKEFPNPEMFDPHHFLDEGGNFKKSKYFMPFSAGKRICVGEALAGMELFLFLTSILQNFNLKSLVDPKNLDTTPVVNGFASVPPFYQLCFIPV

[17] = Stability in human liver microsomes assessed as intrinsic clearance; assay type: ADME, Microsome; conditions: read-out: CLH
[18] = tested on: Mus musculus; experiment: Protection against C57BL/6J mouse model of neuronal mTOR hyperactivity assessed as survival rate at 6 mg/kg, ip administered on postnatal day 22 daily and measured on postnatal day 52 (reference value: 48 %); assay type: functional
[19] = tested on: Cortical neurone; experiment: Inhibition of oversizing of mouse primary cortical neuron harboring TSC1 deletion mutant at 20 nM incubated for 7 days by immunofluorescence assay; assay type: functional, cell-based; conditions: 168 h
[20] = tested on: Cortical neurone; experiment: Inhibition of overgrowth of mouse primary cortical neuron harboring TSC1 deletion mutant at 20 nM incubated for 7 days by immunofluorescence assay; assay type: functional, cell-based

Compound | solubility [1] [µg/mL] | IC50 [2] [nM] | K [3] [min⁻¹] | microsomal CLint at 1 µM [4] [µL/min/mg] | other results
C[C@@H]1COCCN1c1nc(C2CCOCC2)nc2sc(-c3cc[nH]n3)nc12 | 9 (≈ 23.3 µM) | 6.3 | 0.003 | 37 | 
CC(C)c1nc(N2CCOC[C@H]2C)c2nc(-c3cc[nH]n3)sc2n1 | < 1 | 3.7 | 0.012 | 104 | 
C[C@@H]1COCCN1c1nc(N2CCOC[C@@H]2C)nc2[nH]c(-c3cccc4[nH]ccc34)nc12 |  |  | 0.08 |  | microsomal CLint [5]: 62 µL/min/mg; efflux ratio [6]: 0.95; microsomal CLint [7]: 121 µL/min/mg; IC50 [8]: 800 nM; microsomal CLint [9]: 35 µL/min/mg; IC50 [10]: 6600 nM; microsomal CLint [11]: 60 µL/min/mg; IC50 [12]: > 10000 nM; IC50 [13]: 12800 nM; IC50 [14]: 6600 nM; IC50 [15]: 38 nM; IC50 [16]: 1980 nM; microsomal CLint [17]: 27 µL/min/mg
C[C@@H]1COCCN1c1nc(N2CCOC[C@@H]2C)nc2sc(-c3cn[nH]c3)nc12 |  | 56 | 0.02 |  | 
C[C@@H]1COCCN1c1nc(N2CCOC[C@@H]2C)nc2sc(-c3cccc(O)c3)nc12 |  | 278 | 0.035 |  | 
C[C@@H]1COCCN1c1nc(N2CCOC[C@@H]2C)nc2sc(-c3c[nH]cn3)nc12 |  | 7.8 | 0.013 |  | efflux ratio [6]: 0.89
C[C@@H]1COCCN1c1nc(N2CCCOCC2)nc2sc(-c3cc[nH]n3)nc12 | < 2 | 2.7 | 0.011 | 164 | 
CO[C@H]1C[C@@H]2CC[C@@H](C)[C@@](O)(O2)C(=O)C(=O)N2CCCC[C@H]2C(=O)O[C@H]([C@H](C)C[C@@H]2CC[C@@H](OCCO)[C@H](OC)C2)CC(=O)[C@H](C)/C=C(\C)[C@@H](O)[C@@H](OC)C(=O)[C@H](C)C[C@H](C)/C=C/C=C/C=C/1C [EVEROLIMUS] |  |  |  |  | Activity [18]: 100%; IC50 [19]: 0.15 nM; inhibition [20]: Active
C[C@@H]1COCCN1c1nc(N2CCOCC2)nc2sc(-c3cc[nH]n3)nc12 | 4 (≈ 10.3 µM) | 5.3 | 0.011 | 24 | 
C[C@@H]1COCCN1c1nc(CN2CCOCC2)nc2sc(-c3cc[nH]n3)nc12 | 325 (≈ 809 µM) | 92 | 0.008 | > 924 | 
C[C@@H]1COCCN1c1nc(N2CCOC[C@@H]2C)nc2sc(-c3cn[nH]n3)nc12 |  | 6.9 | 0.01 |  | efflux ratio [6]: 0.65
C[C@@H]1COCCN1c1nc(N2CCN(C)CC2)nc2sc(-c3cc[nH]n3)nc12 | 191 (≈ 477 µM) | 134 | 0.001 | > 924 | 
C[C@@H]1COCCN1c1ncnc2sc(-c3cc[nH]n3)nc12 |  | 603 | 0.006 | 100 | 
C[C@@H]1COCCN1c1nc(N2CCOC[C@@H]2C)nc2sc(-c3cccc4[nH]ccc34)nc12 |  | 305 | 0.027 |  | 

— ChEMBL document CHEMBL4376889, “Discovery of a Brain-Penetrant ATP-Competitive Inhibitor of the Mechanistic Target of Rapamycin (mTOR) for CNS Disorders” (J Med Chem, 2020)
